Data reported in PubChem BioAssay (NCI).
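Following 48 hours of exposure in 96-well plates, responses at five concentrations were used to interpolate endpoints linearly. At the GI50, growth is halved. Definition used: TGI = concentration required for complete inhibition of growth.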

Legend:
Experiment in all cases: NCI tumour cell line growth inhibition, 48 h
[1] = system: MALME-3M melanoma
[2] = system: IGROV1 ovarian
[3] = system: OVCAR-5 ovarian
[4] = system: UO-31 renal
[5] = system: NCI-H460 lung
[6] = system: TK-10 renal
[7] = system: SF-295 CNS
[8] = system: SF-539 CNS
[9] = system: UACC-62 melanoma
[10] = system: RPMI-8226 leukemia

| SMILES | GI50 [1] | TGI [1] | GI50 [2] | TGI [2] | GI50 [3] | TGI [3] | GI50 [4] | TGI [4] | GI50 [5] | TGI [5] | GI50 [6] | TGI [6] | GI50 [7] | TGI [7] | GI50 [8] | TGI [8] | GI50 [9] | TGI [9] | GI50 [10] | TGI [10] |
| --- | --- | --- | --- | --- | --- | --- | --- | --- | --- | --- | --- | --- | --- | --- | --- | --- | --- | --- | --- | --- |
| FC(F)(F)c1ccc(C#Cc2ccccc2C#Cc2ccccc2)cc1 | 36.3 µM | > 100 µM | > 100 µM | > 100 µM | 48.7 µM | > 100 µM | 49.7 µM | > 100 µM | 41.1 µM | > 100 µM | 31.7 µM | > 100 µM | 30.3 µM | > 100 µM | 41.4 µM | > 100 µM | 92.9 µM | > 100 µM |  |  |
| O=c1oc2cc(N=Cc3ccc4c(c3)OCO4)ccc2c2ccccc12 |  | > 100 µM |  | > 100 µM |  | > 100 µM |  | > 100 µM |  | > 100 µM |  | > 100 µM |  | > 100 µM |  | > 100 µM |  | > 100 µM |  |  |
| c1ccc2cc3[s+]snc3cc2c1 |  | > 100 µM |  | > 100 µM |  | > 100 µM |  | > 100 µM |  | > 100 µM |  | > 100 µM |  | > 100 µM |  | > 100 µM |  | > 100 µM |  |  |
| O=c1[nH]c(=O)c2cc(C3CC(O)C(CO)O3)ccc2[nH]1 (stereo not given) |  |  | > 100 µM | > 100 µM | > 100 µM | > 100 µM | > 100 µM | > 100 µM | > 100 µM | > 100 µM |  |  | > 100 µM | > 100 µM | > 100 µM | > 100 µM | > 100 µM | > 100 µM | > 100 µM | > 100 µM |
| Nc1c([N+](=O)[O-])cc2c3c(cccc13)CC2 |  |  |  | > 100 µM |  | > 100 µM |  | > 100 µM |  | > 100 µM |  | > 100 µM |  | > 100 µM |  | > 100 µM |  | > 100 µM |  | > 100 µM |
| C[N+]1(C)C/C(=C\c2ccccc2)C(=O)/C(=C/c2ccccc2)C1 |  | > 100 µM |  | > 100 µM |  | > 100 µM |  | > 100 µM |  | > 100 µM |  | > 100 µM |  | > 100 µM |  | > 100 µM |  |  |  | > 100 µM |
| O=Cc1ccccc1B(O)O |  |  |  | > 100 µM |  | > 100 µM |  | > 100 µM |  | > 100 µM |  | > 100 µM |  | > 100 µM |  | > 100 µM |  | > 100 µM |  | 0.0472 µM |
| Cc1cc(NS(=O)(=O)c2ccc(NC(=O)c3ccc(Cl)c4c(Nc5ccc(S(=O)(=O)N=C(N)N)cc5)c5ccccc5nc34)cc2)no1 |  | > 100 µM |  |  |  | > 100 µM |  | > 100 µM |  | > 100 µM |  | > 100 µM |  | > 100 µM |  | > 100 µM |  | > 100 µM |  | > 100 µM |
| CNC(=O)CC1NC(=O)c2csc(n2)-c2ccc(-c3nc(C4=NC(C(=O)N5CCCC5C(N)=O)CO4)cs3)nc2-c2csc(n2)-c2csc(n2)C(C(C)C)NC(=O)CNC(=O)c2csc(n2)C(C(C)C)NC(=O)c2nc1sc2C (stereo not given) |  | > 25 µM | > 25 µM |  |  |  | > 25 µM | > 25 µM | > 25 µM | > 25 µM | > 25 µM |  | > 25 µM | > 25 µM | > 25 µM |  | > 25 µM | > 25 µM | < 0.001 µM |  |
| CC[C@@]1(OC(=O)CN)C(=O)OCc2c1cc1n(c2=O)Cc2cc3c(N)cccc3nc2-1 | 0.0473 µM | 1.75 µM | 0.115 µM |  | 0.045 µM | 1.12 µM |  |  | < 0.01 µM | 0.114 µM | 1.31 µM | > 21.6 µM | < 0.01 µM | 0.0497 µM | < 0.01 µM | < 0.0153 µM |  |  | 0.0474 µM |  |
| S=c1ssc(Oc2ccccc2)c1Cl |  |  |  |  | 23.2 µM | 49.9 µM | 19 µM | 58.8 µM | 16.9 µM | 33.1 µM | 3 µM | 9.68 µM | 15.1 µM | 28.3 µM | 17.3 µM | 33.8 µM | 14 µM | 26.9 µM | 0.95 µM | 7.7 µM |
| Cc1cc(=O)[nH]c2cc3c(c4c(n3Cc3ccc(Cl)cc3Cl)CC(C)(C)CC4=O)c(O)c12 | 29.9 µM | 75.9 µM | > 100 µM | > 100 µM |  |  | > 100 µM | > 100 µM | 79.5 µM | > 100 µM | > 100 µM | > 100 µM | 16.4 µM | 63.5 µM | > 100 µM | > 100 µM | > 100 µM | > 100 µM | > 100 µM | > 100 µM |
| O=C1C2C=CC(C2)C(c2ccc(O)cc2)N1O (stereo not given) |  | > 100 µM |  | > 100 µM |  | > 100 µM |  | > 100 µM |  | > 100 µM |  | > 100 µM |  | > 100 µM |  |  |  | > 100 µM |  | > 100 µM |
| COc1ccc(/C(=N\O)c2cc(C)c(OC)c(C)c2)cc1O | < 0.01 µM | > 100 µM | 0.0134 µM | > 100 µM | 0.0631 µM | > 100 µM | 0.0709 µM | > 100 µM | < 0.01 µM | 15.6 µM | 0.078 µM | > 100 µM | < 0.01 µM | > 100 µM |  |  | < 0.01 µM | > 100 µM |  |  |
| CC(C)(CN1CCCCC1)C(=O)/C=C/c1ccc(Cl)cc1 |  | 18.9 µM |  |  |  | 23.5 µM |  | 20.2 µM |  | 8.21 µM |  | 29.1 µM |  | 11.3 µM |  | 5.41 µM |  | 20.2 µM |  | 10.1 µM |
| O=S(=O)(c1cccc2c(Cl)cccc12)N1CCCNCC1 |  |  | 18.6 µM | 34.6 µM | 11.5 µM | 23.6 µM | 14.1 µM | 28.5 µM | 19.4 µM | 47 µM | 13 µM | 25.8 µM | 17.7 µM | 34.5 µM | 19.4 µM | 37.7 µM | 13.6 µM | 26.5 µM | 13.9 µM | 32.7 µM |
| O=c1nc(NC(c2ccccc2)(c2ccccc2)c2ccccc2)ccn1CCNCCn1ccc(NC(c2ccccc2)(c2ccccc2)c2ccccc2)nc1=O |  | 29.3 µM |  | 56.2 µM |  | > 100 µM |  | > 100 µM |  | 33.8 µM |  | 60.6 µM |  | 27.3 µM |  | 29.6 µM |  | 24.1 µM |  |  |
